# Test results as given in paper PMC6271825, “Synthesis and Cytotoxic Activity Evaluation of Novel Arylpiperazine Derivatives on Human Prostate Cancer Cell Lines” (Molecules, 2014).
# Where a name gives a salt, the structure may show the parent alone.
row,melting point [°C],SMILES
1,187 to 188,"Fc1ccccc1N1CCN(CCc2ccc(COc3ccc4c(c3)OCO4)cc2)CC1 (as salt: HCl) [Compound 15, 1-(2-(4-((Benzo[d][1,3]dioxol-5-yloxy)methyl)phenyl)ethyl)-4-(2-fluorophenyl)piperazine]"
2,177 to 178,"c1ccc(CN2CCN(CCc3ccc(COc4ccc5c(c4)OCO5)cc3)CC2)cc1 (as salt: HCl) [Compound 6, 1-(2-(4-((Benzo[d][1,3]dioxol-5-yloxy)methyl)phenyl)ethyl)-4-benzylpiperazine]"
3,177 to 178,"Clc1cccc(N2CCN(CCc3ccc(COc4ccc5c(c4)OCO5)cc3)CC2)c1 (as salt: HCl) [Compound 21, 1-(2-(4-((Benzo[d][1,3]dioxol-5-yloxy)methyl)phenyl)ethyl)-4-(3-chlorophenyl)piperazine]"
4,171 to 172,"Cc1cccc(N2CCN(CCc3ccc(COc4ccc5c(c4)OCO5)cc3)CC2)c1 (as salt: HCl) [Compound 11, 1-(2-(4-((Benzo[d][1,3]dioxol-5-yloxy)methyl)phenyl)ethyl)-4-m-tolylpiperazine]"
5,202 to 203,"Cc1ccccc1N1CCN(CCc2ccc(COc3ccc4c(c3)OCO4)cc2)CC1 (as salt: HCl) [Compound 9, 1-(2-(4-((Benzo[d][1,3]dioxol-5-yloxy)methyl)phenyl)ethyl)-4-o-tolylpiperazine]"
6,176 to 177,"Clc1ccccc1N1CCN(CCc2ccc(COc3ccc4c(c3)OCO4)cc2)CC1 (as salt: HCl) [Compound 19, 1-(2-(4-((Benzo[d][1,3]dioxol-5-yloxy)methyl)phenyl)ethyl)-4-(2-chlorophenyl)piperazine]"
7,184 to 185,"Cc1ccc(N2CCN(CCc3ccc(COc4ccc5c(c4)OCO5)cc3)CC2)cc1 (as salt: HCl) [Compound 10, 1-(2-(4-((Benzo[d][1,3]dioxol-5-yloxy)methyl)phenyl)ethyl)-4-p-tolylpiperazine]"
8,195 to 196,"c1ccc(N2CCN(CCc3ccc(COc4ccc5c(c4)OCO5)cc3)CC2)cc1 (as salt: HCl) [Compound 5, 1-(2-(4-((Benzo[d][1,3]dioxol-5-yloxy)methyl)phenyl)ethyl)-4-phenylpiperazine]"

# The next lines start with the compound.
row,SMILES,melting point [°C]
1,"CC(=O)c1ccc(N2CCN(CCc3ccc(COc4ccc5c(c4)OCO5)cc3)CC2)cc1 (as salt: HCl) [Compound 27, 1-(4-(4-(2-(4-((Benzo[d][1,3]dioxol-5-yloxy)methyl)phenyl)ethyl)piperazin-1-yl)phenyl)ethanone]",183 to 184
2,"Brc1ccc(N2CCN(CCc3ccc(COc4ccc5c(c4)OCO5)cc3)CC2)cc1 (as salt: HCl) [Compound 24, 1-(2-(4-((Benzo[d][1,3]dioxol-5-yloxy)methyl)phenyl)ethyl)-4-(4-bromophenyl)piperazine]",173 to 174
3,"FC(F)(F)c1ccccc1N1CCN(CCc2ccc(COc3ccc4c(c3)OCO4)cc2)CC1 (as salt: HCl) [Compound 25, 1-(2-(4-((Benzo[d][1,3]dioxol-5-yloxy)methyl)phenyl)ethyl)-4-(2-(trifluoromethyl)phenyl)piperazine]",171 to 172
4,"FC(F)(F)c1ccc(N2CCN(CCc3ccc(COc4ccc5c(c4)OCO5)cc3)CC2)cc1 (as salt: HCl) [Compound 26, 1-(2-(4-((Benzo[d][1,3]dioxol-5-yloxy)methyl)phenyl)ethyl)-4-(4-(trifluoromethyl)phenyl)piperazine]",176 to 177
5,"COc1cccc(N2CCN(CCc3ccc(COc4ccc5c(c4)OCO5)cc3)CC2)c1 (as salt: HCl) [Compound 14, 1-(2-(4-((Benzo[d][1,3]dioxol-5-yloxy)methyl)phenyl)ethyl)-4-(3-methoxyphenyl)piperazine]",171 to 172
6,"Clc1ccc(N2CCN(CCc3ccc(COc4ccc5c(c4)OCO5)cc3)CC2)cc1 (as salt: HCl) [Compound 20, 1-(2-(4-((Benzo[d][1,3]dioxol-5-yloxy)methyl)phenyl)ethyl)-4-(4-chlorophenyl)piperazine]",164 to 165
7,"c1ccc(C2CCN(CCc3ccc(COc4ccc5c(c4)OCO5)cc3)CC2)cc1 (as salt: HCl) [Compound 28, 1-(2-(4-((Benzo[d][1,3]dioxol-5-yloxy)methyl)phenyl)ethyl)-4-phenylpiperidine]",183 to 184
8,"COc1ccccc1N1CCN(CCc2ccc(COc3ccc4c(c3)OCO4)cc2)CC1 (as salt: HCl) [Compound 12, 1-(2-(4-((Benzo[d][1,3]dioxol-5-yloxy)methyl)phenyl)ethyl)-4-(2-methoxyphenyl)piperazine]",173 to 174
9,"COc1ccc(N2CCN(CCc3ccc(COc4ccc5c(c4)OCO5)cc3)CC2)cc1 (as salt: HCl) [Compound 13, 1-(2-(4-((Benzo[d][1,3]dioxol-5-yloxy)methyl)phenyl)ethyl)-4-(4-methoxyphenyl)piperazine]",174 to 175
10,"OC1(c2ccccc2)CCN(CCc2ccc(COc3ccc4c(c3)OCO4)cc2)CC1 (as salt: HCl) [Compound 29, 1-(2-(4-((Benzo[d][1,3]dioxol-5-yloxy)methyl)phenyl)ethyl)-4-phenylpiperidin-4-ol]",194 to 195
11,"COc1ccc(Cl)cc1N1CCN(CCc2ccc(COc3ccc4c(c3)OCO4)cc2)CC1 (as salt: HCl) [Compound 23, 1-(2-(4-((Benzo[d][1,3]dioxol-5-yloxy)methyl)phenyl)ethyl)-4-(5-chloro-2-methoxyphenyl)piperazine]",177 to 178
12,"Fc1ccc(N2CCN(CCc3ccc(COc4ccc5c(c4)OCO5)cc3)CC2)cc1 (as salt: HCl) [Compound 16, 1-(2-(4-((Benzo[d][1,3]dioxol-5-yloxy)methyl)phenyl)ethyl)-4-(4-fluorophenyl)piperazine]",196 to 197
13,"N#Cc1ccc(N2CCN(CCc3ccc(COc4ccc5c(c4)OCO5)cc3)CC2)c(F)c1 (as salt: HCl) [Compound 18, 4-(4-(2-(4-((Benzo[d][1,3]dioxol-5-yloxy)methyl)phenyl)ethyl)piperazin-1-yl)-3-fluorobenzonitrile]",182 to 183
14,"Fc1ccc(N2CCN(CCc3ccc(COc4ccc5c(c4)OCO5)cc3)CC2)c(F)c1 (as salt: HCl) [Compound 17, 1-(2-(4-((Benzo[d][1,3]dioxol-5-yloxy)methyl)phenyl)ethyl)-4-(2,4-difluorophenyl)piperazine]",169 to 170
15,"c1ccc(N2CCN(CCc3ccc(COc4ccc5c(c4)OCO5)cc3)CC2)nc1 (as salt: HCl) [Compound 7, 1-(2-(4-((Benzo[d][1,3]dioxol-5-yloxy)methyl)phenyl)ethyl)-4-(pyridin-2-yl)piperazine]",185 to 186
16,"Clc1cccc(N2CCN(CCc3ccc(COc4ccc5c(c4)OCO5)cc3)CC2)c1Cl (as salt: HCl) [Compound 22, 1-(2-(4-((Benzo[d][1,3]dioxol-5-yloxy)methyl)phenyl)ethyl)-4-(2,3-dichlorophenyl)piperazine]",177 to 178
17,"c1cnc(N2CCN(CCc3ccc(COc4ccc5c(c4)OCO5)cc3)CC2)nc1 (as salt: HCl) [Compound 8, 2-(4-(2-(4-((Benzo[d][1,3]dioxol-5-yloxy)methyl)phenyl)ethyl)piperazin-1-yl)pyrimidine]",181 to 182
